Common to all, as to assay type: in vivo
A short description of data set [1]: Acute toxicity for oral administration in mice. The conditions noted are these: mouse, in vivo, suspension in 10% gum arabic. As to the method: (§1) 1--ACUTE TOXICITY FOR ORAL ADMINISTRATION IN MICE
(§2) The compounds are administered orally in increasing doses in suspension in a 10% gum arabic solution to groups of 5 .female. mice of mean weight 25 g. The 50% lethal doses (LD 50) are calculated by the method of KARBER and BEHRENS (Arch. Exp. Path. Pharmakol. 1935, 177, 379-388).
(§3) The LD 50's found are summarised in Table IV below and indicate that the tested compounds have low toxicity.

Data set [2] concerns spontaneous motor activity. Description: Action on spontaneous motor activity in the mouse (BOISSIER). The note with it: po, 0.5 h, 30 minutes after administration, vs control, read-out: Percentage variation in motor activity; for change in vivo at 500 mg/kg: 500 mg/kg p.o. As to the method: 2.1--Action on spontaneous motor activity in the mouse
30 minutes after administration per os of the test compounds, the mice (groups of 12 animals) are installed in individual cages in a BOISSIER activity measuring cupboard and move about before two photoelectric cells placed according to the rectangular coordinates. Meters register the movement during 20 minutes.

Data set [3] deals with pentobarbital hypnosis time. Description: Action on the pentobarbital hypnosis time in the mouse. The note with it: po, 0.5 h, 30 minutes before pentobarbital 50 mg/kg i.v., vs control, read-out: Percentage variation in pentobarbital hypnosis time. From the text: 2.2--Action on the pentobarbital hypnosis time in the mouse
The hypnosis time of each mouse is counted in minutes from the moment when the animal may be placed without resistance on its back until that when it spontaneously gets back on its feet.

Data set [4] deals with convulsant effects of strychnine. Put plainly: Action against the convulsant effects of strychnine in the mouse. The note with it: 30 minutes before strychnine 1.5 mg/kg s.c. Here is the method: (§4) 2.3--Test on the action against the convulsant effects of electric shock and of strychnine in the mouse
(§5) 30 minutes after administration of the compounds to groups of 10 animals, there is investigated the protection induced against:
convulsive crisis and death provoked by injection of strychnine at a limiting lethal dose of 1.5 mg/kg s.c.
(§6) The results are expressed as a percentage of protection based on a control group which have only received the administration vehicle for the compounds.

Data set [5] concerns convulsant effects of electric shock. Put plainly: Action against the convulsant effects of electric shock in the mouse. The note with it: po, 0.5 h, 30 minutes before shock, 13 to 16 mA for 0.1 sec, read-out: Percentage protection against the convulsant effects of the electric shock; for responders at 500 mg/kg: 500 mg/kg p.o. As to the method:
as §4, §5
tonic crisis (extension of rear feet) provoked by supramaximal transcranial electric stimulation (13 to 16 mA for 0.1 sec).
as §6

Data set [6] concerns mice. Description: Acute toxicity for oral administration in mice. The conditions noted are these: suspension in 10% gum arabic. As to the method: as §1, §2, §3

SMILES strings stand for the structures.

Broadly, the LD50 is the dose at which mortality reaches 50%. Low readings indicate greater toxicity, high ones lower toxicity.

Compound `COc1cc(NC(=O)N2CCOCC2)cc(OC)c1OC` [compound 733] displayed an LD50 in data set [1] (po) of 4000 mg/kg. Also, the change in vivo at 400 mg/kg in data set [2] (400 mg/kg p.o.) was -74%; in data set [3] (400 mg/kg p.o.), 164%. Also, the “Percentage protection against the convulsant effects of strychnine” value (from here on “Percentage protection”) in data set [4] (400 mg/kg p.o.) was 100%. The responders at 400 mg/kg in data set [5] (400 mg/kg p.o.) was 30%.
`COc1cc(OC(=O)N2CCOCC2)cc(OC)c1OC` [compound 754] registered an LD50 in data set [1] of 5000 mg/kg. Moreover, the change in vivo at 500 mg/kg in data set [2] was -41%; in data set [3] (500 mg/kg p.o.) it was 178%. In addition, the “Percentage protection” value in data set [4] (500 mg/kg p.o.) is on record as 100%. Besides, the responders at 500 mg/kg in data set [5] was found to be 90%.
`COc1cc(NC(=O)N(C)C2CCCC2)cc(OC)c1OC` [compound 801] gave an LD50 in data set [1] (po) of 2500 mg/kg. Besides, the figures for the change in vivo at 250 mg/kg in data set [2] (250 mg/kg p.o.) and in data set [3] (250 mg/kg p.o.) were -29% and 70%, respectively. Moreover, in data set [4] (250 mg/kg p.o.), the “Percentage protection” value was 100%. For the same compound, the responders at 250 mg/kg in data set [5] (250 mg/kg p.o.) was determined as 37%.
Take `COc1cc(NC(=O)N2CC=CCC2)cc(OC)c1OC` [compound 819]: the median lethal dose (LD50) in data set [1] (po) amounted to 5000 mg/kg. For the same compound, the change in vivo at 500 mg/kg in data set [2] is -18%. Besides, in data set [4] (500 mg/kg p.o.), the “Percentage protection” value amounted to 70%. Besides, the responders at 500 mg/kg in data set [5] was found to be 40%.
On to `COc1cc(NC(=O)CN2CCOCC2)cc(OC)c1OC` [compound 833], for which the “LD50” value in data set [6] is reported as 3000 mg/kg.

Values taken from US4252804A, “Therapeutically useful 3,4,5-trimethoxybenzene derivatives” (Metabio-Joullie, priority 1977, dated 1981).
